{"source": "patent US20020142942A1", "about": "“Method for treating premenstrual or late luteal phase syndrome” (Merck & Co. Inc., priority 1997, published 2002)", "key": {"[1]": {"system": "foot tapping in gerbils induced by central injection of an NK1 agonist", "experiment": "Gerbil foot-tapping assay", "assay_type": "in vivo, Mongolian gerbils", "conditions": "i.v.", "excerpt": "Gerbil Foot-Tapping Assay CNS penetrant NK-1 receptor antagonists for use in the present invention can be identified by their ability to inhibit foot tapping in gerbils induced by anxiogenic agents (such as pentagastrin) or central infusion of NK-1 receptor agonists such as GR73632, or caused by aversive stimulation such as foot shock or single housing, based on the method of Rupniak & Williams, Eur. J. Pharmacol., 1994, 265, 179. Male or female Mongolian gerbils (35-70 g) are anaesthetised by inhalation of an isoflurane/oxygen mixture to permit exposure of the jugular vein in order to permit administration of test compounds or vehicle in an injection volume of 5 ml/kg i.v. Alternatively, test compounds may be administered orally or by subcutaneous or intraperitoneal routes. The wound is closed and a second skin incision is made in the midline of the scalp to expose the skull. […] The duration and/or intensity of hind foot tapping is then recorded continuously for 5 minutes. Alternatively, the ability of test compounds to inhibit foot tapping evoked by aversive stimulation, such as foot shock or single housing, may be studied using a similar method of quantification."}, "[2]": {"system": "cisplatin-induced emesis in ferrets", "experiment": "Ferret emesis assay", "assay_type": "in vivo", "conditions": "p.o.", "description": "Ferret Emesis Assay Individually housed male ferrets (1.0-2.5 kg) are dosed orally by gavage with test compound. Ten minutes later they are fed with approximately 100 g of tinned cat food. At 60 minutes following oral dosing, cisplatin (10 mg(kg) is given i.v. via a jugular vein catheter inserted under a brief period of halothane anaesthesia. The catheter is then removed, the jugular vein ligated and the skin incision closed. The ferrets recover rapidly from the anaesthetic and are mobile within 10-20 minutes. The animals are observed continuously during recovery from the anaesthetic and for 4 hours following the cisplatin injection, after which time the animals are killed humanely. The numbers of retches and vomits occurring during the 4 hours after cisplatin administration are recorded by trained observers."}, "[3]": {"system": "distress vocalisations in guinea-pig pups", "experiment": "Separation-induced vocalisation assay", "assay_type": "in vivo, guinea-pigs", "conditions": "p.o.", "excerpt": "Separation-Induced Vocalisation Assay Male and female guinea-pigs pups are housed in family groups with their mothers and littermates throughout the study. Experiments are commenced […] when the pups are 2 weeks old. Before entering an experiment, the pups are screened to ensure that a vigorous vocalisation response is reproducibly elicited following maternal separation. The pups are placed individually in an observation cage (55 cm×39 cm×19 cm) in a room physically isolated from the home cage for 15 minutes and the duration of vocalisation during this baseline period is recorded. Only animals which vocalise for longer than 5 minutes are employed for drug challenge studies (approximately 50% of available pups may fail to reach this criterion). On test days each pup receives an oral dose or a s.c. or i.p. injection of test compound or vehicle and is then immediately returned to the home cage with its mother and siblings for 30 minutes to 60 minutes (or for up to 4 hours following an oral dose, dependant upon the oral pharmacokinetics of the test compound) before social isolation for 15 minutes as described above. The duration of vocalisation on drug treatment days is expressed as a percentage of the pre-treatment baseline value for each animal. The same subjects are retested once weekly for up to 6 weeks. Between 6 and 8 animals receive each test compound at each dose tested. […]"}, "[4]": {"system": "women with premenstrual syndrome", "experiment": "Double-blind, placebo-controlled study of mood and appetite disturbances associated with premenstrual syndrome", "assay_type": "in vivo", "conditions": "30 mg/day, compared with placebo, Hamilton Depression Scale and PMS/LLPD Symptom Rating Scale", "description": "Double-Blind, Placebo-Controlled Study to Determine the Effect of a Substance P Antagonist on Mood and Appetite Disturbances Associated with Premenstrual Syndrome in Women.\nApproximately twenty women receive either the substance P receptor antagonist 2-(R)-(1-(R)-(3,5-bis(trifluoromethyl)phenyl)ethoxy)-3-(S)-(4-fluorophenyl)-4-(3-(5-oxo-1H,4H-1,2,4-triazolo)methyl-morpholine (30 mg/day) or a placebo starting approximately two weeks prior to their expected menstrual period. Each subject participates in 6 randomized test periods; in 3 of the test periods, each is given the substance P antagonist and in the other 3 test periods, is given a placebo. Mood is assessed 1-3 days before the onset of menses, using the Hamilton Depression Scale and the PMS/LLPD Symptom Rating Scale, for mood and appetite symptoms. Hamilton, N., Journal of Neurosurgery and Psychiatry, 23:56-62 (1960); Steiner, M. et al., Acta Psychiatrica Scandinavia, 62:177-190 (1980). Food intake is measured through the use of self-reports (when subjects were out-patients), and directly (while subjects were inpatients), during one drug and one placebo period; subjects also are weighed. The results between the test periods are compared and the results for each subject are evaluated."}}, "data": [{"smiles": "C[C@@H](O[C@H]1OCCN(Cc2n[nH]c(=O)[nH]2)[C@H]1c1ccc(F)cc1)c1cc(C(F)(F)F)cc(C(F)(F)F)c1", "note": "[2-(R)-(1-(R)-(3,5-bis(trifluoromethyl)-phenyl)-ethoxy)-3-(S)-(4-fluorophenyl)-4-(3-(5-oxo-1H,4H-1,2,4-triazolo)methyl)-morpholine]", "values": [{"measurement": "gerbil foot-tapping (5 mins.): IC50", "setting": "[1]; 5 mins.", "value": "IC50 = 0.36 mg/kg i.v."}, {"measurement": "gerbil foot-tapping (24 hrs.): IC50", "setting": "[1]; 24 hrs.", "value": "IC50 = 0.33 mg/kg i.v."}, {"measurement": "ferret emesis: ID90", "setting": "[2]", "value": "ID90 = <3 mg/kg p.o."}, {"measurement": "guinea-pig vocalisation (4 hr. pre-treatment): ID50", "setting": "[3]", "value": "ID50 = 0.73 mg/kg p.o."}, {"measurement": "effect in decreasing depression and other negative mood states", "setting": "[4]", "value": "positive effect with respect to placebo"}]}]}
